Where “and” joins values, the source holds several entries; their conditions need not be identical. Equal values may be shown once.
Assays:
Format in all cases: in vivo
[1] = test system: Fasciola hepatica aged 6 weeks resistant to salicylanilides (closantel), susceptible to the other drug families used; assay: Controlled test in sheep: efficacy against immature F. hepatica, salicylanilide-resistant strain; details: for efficacy: given alone at low dose rates
Text: (§1) In six controlled tests, a total of 212 merino wethers aged 1 to 2.5 years were used. The sheep were obtained from fluke free areas in North-West New South Wales.
(§2) Some isolates used in the trials were obtained from existing laboratory populations but the majority of the strains were isolated from the field, their resistance status was defined in several controlled tests and the isolates were then maintained in the laboratory. A laboratory strain from Compton U.K. (Compton Paddock Laboratories, Newbury, Berks. UK) was included in the tests. […] The other isolates originated from properties where salicylanilide compounds were used with variable frequency for the control of fasciolosis or haemonchosis, and also various benzimidazole carbamates were used for the control of gastrointestinal nematodes. Those isolates were further selected in the laboratory with benzimidazole compounds, such as luxabendazole (Hoechst Pty.Ltd., Frankfurt am Main, Germany) or by 8 weekly dosing a group of sheep with triclabendazole (Fasinex, CIBA-GEIGY Aust.Ltd., Pendle Hill, NSW Australia) in a 2 acre paddock with natural snail habitats contaminated with Fasciola hepatica .
(§3) In the trials, F.hepatica populations were isolated from properties and passaged through suitable intermediate host snails, Lymnaea tomentosa, L.viridis and L.columella in the laboratory. Sheep were then inoculated with the metacercariae of the selected strains by intraruminal injection of metacercariae suspended in 0.4% carboxy-methylcellulose solution. The sheep were divided into groups of 4 or 5. Standardised control tests (Boray, 1969), were carried out to determine the efficacy of various drugs and combinations against immature F.hepatica isolates.
(§4) Percentage reductions of fluke burdens for the sum of the individual drugs and for the combinations were estimated and their 95 % confidence limits were determined.
(§5) The drugs tested were triclabendazole (Fasinex, CIBA-GEIGY Australia Ltd.), clorsulon (Curatrem, MSD AGVET Rahway, New Jersey, USA), luxabendazole (Hoechst Pty.Ltd., Frankfurt am Main, Germany), closantel (Seponver, SmithKline Animal Health Australia Ltd.), closantel injectible (Flukiver, Janssen Pharma, Belgium), clorsulon injectible (Ivomec F, MSD Agvet,Rahway, New Jersey, USA) and nitroxynil injectible (Trodax, Cyanamid-Webster Australia Ltd.) The commercial formulations were used and for uniform pharmacokinetic distribution they were injected intraruminally (for those drugs it is equal to oral dosing) at the selected dose rate according to the body weight of the sheep 6 weeks after inoculation. In the trials with the injectible nitroxynil the drugs were applied as a subcutaneous injection. For each trial a group of sheep were left untreated as controls. The sheep were slaughtered 16 weeks after inoculation and the flukes were recovered from the livers and counted. […] The dose rates were selected based on many preliminary studies on the efficacy against F.hepatica aged 6 weeks. […] According to accepted standards (Boray, 1969) high efficacy is achieved when the drug reduces the fluke burden by 90% or more.

[2] = test system: Fasciola hepatica aged 6 weeks (Susceptible to the drugs used); assay: Controlled test in sheep: efficacy against immature F. hepatica, susceptible strain
Text: as §1, §2, §3, §4, §5

[3] = test system: Fasciola hepatica aged 6 weeks, resistant to salicylanilides; assay: Controlled test in sheep, subcutaneous injection: efficacy against immature F. hepatica, Hampton II strain
Text: as §1, §2, §3, §4, §5

[4] = test system: Fasciola hepatica aged 6 weeks resistant to salicylanilides (closantel) and benzimidazole carbamates (luxabendazole); assay: Controlled test in sheep: efficacy against immature F. hepatica, multiple resistant Armidale-Morven strain
Text: as §1, §2, §3, §4, §5

[5] = test system: Fasciola hepatica aged 6 weeks resistant to triclabendazole; assay: Controlled test in sheep: efficacy against immature F. hepatica, triclabendazole-resistant strain
Text: as §1, §2, §3, §4, §5

[6] = 5.0 mg/kg intraruminal, 5 mg/kg
[7] = 3.0 mg/kg subcutaneous injection
[8] = 7.5 mg/kg intraruminal, 7.5 mg/kg
[9] = 5.0 mg/kg intraruminal, listed as luxabendazole, 5 mg/kg
[10] = 7.0 mg/kg subcutaneous injection
[11] = 2.0 mg/kg intraruminal, 2 mg/kg

CCCSc1ccc2nc(NC(=O)OC)[nH]c2c1 [Albendazole, albendazole]
Mean No. of Fluke (SD) ([1]; 5.0 mg/kg intraruminal): 52.7 (6.9) | Percent Reduction of Fluke Burden (95% Confidence limits) ([1]; 5.0 mg/kg intraruminal): 28.4 (6, 72) % | efficacy [1]: very low efficacy

Nc1cc(C(Cl)=C(Cl)Cl)c(S(N)(=O)=O)cc1S(N)(=O)=O [Clorsulon, clorsulon]
Mean No. of Fluke (SD) ([2]; 3.0 mg/kg intraruminal): 32.5 (4.4) | Percent Reduction of Fluke Burden (95% Confidence limits) ([2]; 3.0 mg/kg intraruminal): 25.9 (6, 67) % | Mean No. of Fluke (SD) ([2]; 5.0 mg/kg intraruminal): 30.0 (11.6) | Percent Reduction of Fluke Burden (95% Confidence limits) ([2]; 5.0 mg/kg intraruminal): 31.6 (9, 67) % | Mean No. of Fluke (SD) ([3]; 2.0 mg/kg subcutaneous injection): 18.4 (6.6) | Percent Reduction of Fluke Burden (95% Confidence limits) ([3]; 2.0 mg/kg subcutaneous injection, 2 mg/kg): 36.6 (9.76) % | Percent Reduction of Fluke Burden (95% Confidence limits) ([3]; 2.0 mg/kg subcutaneous injection, listed as clorsulon, 2 mg/kg): 36.5% | Mean No. of Fluke (SD) ([1]; 3.0 mg/kg intraruminal): 57.5 (19.6) | Percent Reduction of Fluke Burden (95% Confidence limits) ([1]; 3.0 mg/kg intraruminal): 21.9 (3, 74) % | efficacy [1]: very low efficacy | Mean No. of Fluke (SD) ([4]; 5.0 mg/kg intraruminal): 41.0 (3.7) | Percent Reduction of Fluke Burden (95% Confidence limits) [4, 6]: 52.7 (33,72) % | Percent Reduction of Fluke Burden (95% Confidence limits) ([4]; 5.0 mg/kg intraruminal, listed as clorsulon, 5 mg/kg): 52% | Mean No. of Fluke (SD) ([5]; 3.0 mg/kg intraruminal): 55.7 (42.9) | Percent Reduction of Fluke Burden (95% Confidence limits) ([5]; 3.0 mg/kg intraruminal, 3 mg/kg): 30% and 30.5 (2, 91) % | Mean No. of Fluke (SD) ([5]; 5.0 mg/kg intraruminal): 45.0 (26.3) | Percent Reduction of Fluke Burden (95% Confidence limits) [5, 6]: 43% and 43.9 (7, 89) %

Cc1cc(C(C#N)c2ccc(Cl)cc2)c(Cl)cc1NC(=O)c1cc(I)cc(I)c1O (centres unmarked) [Closantel, closantel]
Mean No. of Fluke (SD) [3, 7]: 24.4 (14.4) | Percent Reduction of Fluke Burden (95% Confidence limits) [3, 7]: 15.9% | Mean No. of Fluke (SD) ([1]; 5.0 mg/kg intraruminal): 62.0 (17.1) | Mean No. of Fluke (SD) ([1]; 7.5 mg/kg intraruminal): 48.2 (38 6) | Percent Reduction of Fluke Burden (95% Confidence limits) ([1]; 7.5 mg/kg intraruminal): 34.5 (10, 72) % | efficacy [1]: very low efficacy | Mean No. of Fluke (SD) ([4]; 7.5 mg/kg intraruminal): 118 (113.3) | Percent Reduction of Fluke Burden (95% Confidence limits) ([4]; 7.5 mg/kg intraruminal): 0.0% | Percent Reduction of Fluke Burden (95% Confidence limits) [4, 8]: inefficient

COC(=O)Nc1nc2ccc(Sc3ccccc3)cc2[nH]1 [Fenbendazole, fenbendazole]
Mean No. of Fluke (SD) ([1]; 5.0 mg/kg intraruminal): 71.0 (8.0) | Percent Reduction of Fluke Burden (95% Confidence limits) ([1]; 5.0 mg/kg intraruminal): 3.6% | efficacy [1]: very low efficacy

COC(=O)Nc1nc2cc(OS(=O)(=O)c3ccc(F)cc3)ccc2[nH]1 [Luxabendazole, luxabendazole]
Mean No. of Fluke (SD) ([2]; 5.0 mg/kg intraruminal): 32.0 (9.5) | Percent Reduction of Fluke Burden (95% Confidence limits) [2, 6]: 27.0 (6, 67) % | Percent Reduction of Fluke Burden (95% Confidence limits) [2, 9]: 26% | Mean No. of Fluke (SD) ([1]; 5.0 mg/kg intraruminal): 51.7 (25.3) | efficacy [1]: very low efficacy | Mean No. of Fluke (SD) ([4]; 7.5 mg/kg intraruminal): 89.0 (22.6) | Percent Reduction of Fluke Burden (95% Confidence limits) ([4]; 7.5 mg/kg intraruminal): 0.0% | Percent Reduction of Fluke Burden (95% Confidence limits) [4, 8]: inefficient | Mean No. of Fluke (SD) ([5]; 5.0 mg/kg intraruminal): 62.7 (61.3) | Percent Reduction of Fluke Burden (95% Confidence limits) [5, 6]: 21.7 (1, 95) % | Percent Reduction of Fluke Burden (95% Confidence limits) [5, 9]: 21%

N#Cc1cc(I)c(O)c([N+](=O)[O-])c1 [Nitroxynil, nitroxynil]
Mean No. of Fluke (SD) [3, 10]: 26.6 (6.6) | Percent Reduction of Fluke Burden (95% Confidence limits) [3, 10]: 8.3%

COC(=O)Nc1nc2ccc([S+]([O-])c3ccccc3)cc2[nH]1 (centres unmarked) [Oxfendazole, oxfendazole]
Mean No. of Fluke (SD) ([1]; 5.0 mg/kg intraruminal): 74.5 (14.8) | efficacy [1]: very low efficacy

CSc1nc2cc(Cl)c(Oc3cccc(Cl)c3Cl)cc2[nH]1 [Triclabendazole, triclabendazole]
Mean No. of Fluke (SD) ([2]; 2.0 mg/kg intraruminal 6 weeks after inoculation, slaughter at 16 weeks): 9.2 (8.3) | Percent Reduction of Fluke Burden (95% Confidence limits) ([2]; 2.0 mg/kg intraruminal, vs untreated controls, 2 mg/kg): 78.9 (58, 91) % | Percent Reduction of Fluke Burden (95% Confidence limits) ([2]; 2.0 mg/kg intraruminal, vs untreated controls, listed as triclabendazole, 2 mg/kg): 79% | Mean No. of Fluke (SD) ([4]; 2.0 mg/kg intraruminal): 25.5 (13.5) | Percent Reduction of Fluke Burden (95% Confidence limits) ([4]; 2.0 mg/kg intraruminal): 70% | Percent Reduction of Fluke Burden (95% Confidence limits) [4, 11]: 70.6 (53, 83) % | Mean No. of Fluke (SD) ([5]; 2.0 mg/kg intraruminal): 55.0 (51.1) | Percent Reduction of Fluke Burden (95% Confidence limits) [5, 11]: 31.4 (2, 91) % | Percent Reduction of Fluke Burden (95% Confidence limits) ([5]; 2.0 mg/kg intraruminal, listed as triclabendazole, 2 mg/kg): 30%

From patent EP0710105B1, “SYNERGISTIC ANTHELMINTIC COMPOSITIONS AGAINST FASCIOLA HEPATICA AND OTHER FASCIOLA SPECIES” (THE AUSTRALIAN NATIONAL UNIVERSITY, priority 1993, dated 1994)
